Assays:
[1] = test system: FTD/ALS model mice; experiment: Morris water maze test (Test Example 2); assay type: in vivo; settings: 7- to 8-month-old mice; nasal, single agent 0.04 mg/day, 1 month
Excerpt: FVB/NJ-Tg(C9orf72)500Lpwr/J mice (FTD/ALS model mice) were purchased from The Jackson Laboratory (Bar Harbor, ME, USA). The mouse strain was generated as a model for the C9orf72-associated FTD/ALS expressing the human C9orf72 gene with about 500 hexanucleotide ([…]) repeats using a bacterial artificial chromosome (BAC) vector. Transgenic (Tg) mice were crossed with wild-type FVB/NJc1 mice, and the transgene was maintained as a heterozygote at our animal facility. […] Louis, MO) and trans-resveratrol (Sigma-Aldrich) were dissolved in 0.5% low-viscosity CMC (Sigma-Aldrich) at 4 mg/mL. […] Age-matched non-Tg […] mates received only CMC. After administration for one month, the cognitive function of the mice was assessed in the Morris water maze test as described above.

[2] = test system: BDNF; experiment: Expression of BDNF in the mouse brains; assay type: in vivo; settings: stated in the discussion only; no method, dose or data given
[3] = test system: FTD/ALS model mice; experiment: Immunohistochemical analysis of brain sections (Test Example 2); assay type: in vivo; settings: nasal, single agent 0.04 mg/day, 1 month
Excerpt: FVB/NJ-Tg(C9orf72)500Lpwr/J mice (FTD/ALS model mice) were purchased from The Jackson Laboratory (Bar Harbor, ME, USA). The mouse strain was generated as a model for the C9orf72-associated FTD/ALS expressing the human C9orf72 gene with about 500 hexanucleotide (GGGGCC) repeats using a bacterial artificial chromosome (BAC) vector. Transgenic (Tg) mice were crossed with wild-type FVB/NJc1 mice, and the transgene was maintained as a heterozygote at our animal facility.
(§1) Age-matched non-Tg rat mates received only CMC.
(§2) After the behavioral test, each group was divided into two groups: one for immunohistochemical analysis and the other for future biochemical analysis. Immunohistochemical staining was performed as described above. For staining of double-stranded RNA-dependent protein kinase (PKR), phosphorylated TDP-43, synaptophysin, sections were boiled in 10 mM citrate buffer solution (pH6) for 30 min to expose the antigens. The sections were blocked overnight with 10% calf serum, and then the resultant sections were stained with antibodies for DNA/RNA G-quadruplex (BG4; Absolute antibody, Cleveland, UK), phospho-PKR (Thr446) (MilliporeSigma, Burlington, MA, USA), poly-GA, poly-GP (Cosmo Bio Co., Ltd., Tokyo, Japan), pSer409/410-TDP-43 (Cosmo Bio Co., Ltd.), and synaptophysin (SVP-38; Sigma-Aldrich, St. Luis, MO, USA). Only synaptophysin was stained with a biotin-labeled secondary antibody (Vector Laboratories, Burlingame, CA, USA), a horseradish peroxidase (HRP) -labeled avidin-biotin complex (Vector Laboratories), HRP substrate, diaminobenzidine (DAB), or an FITC-labeled secondary antibody (The Jackson Laboratory). […] Neuropathologies were evaluated by measuring the staining intensity or area or by counting positive puncta or cells in a constant area in each photograph using NIH ImageJ software.

[4] = test system: PKR; experiment: Immunohistochemical analysis of phospho-PKR (Thr446) (Test Example 2); assay type: in vivo, mice; settings: prefrontal cortex; nasal, single agent 0.04 mg/day, 1 month
Procedure: as §1, §2

## Oc1ccc(/C=C/c2cc(O)cc(O)c2)cc1 [resveratrol, 3,5,4'-trihydroxy-trans-stilbene]
[1]
  cognitive function of FTD/ALS model mice: significantly improved
[2]
  expression of BDNF in the mouse brains: elicited
[3]; comparison among treatment groups
  relative strength of the reduction of prefrontal cortex pathologies (G-quadruplex, phosphorylated PKR, poly-GA, poly-GP, phosphorylated TDP-43): strongest effect
[3]; dentate gyrus
  synaptic loss (synaptophysin levels) in the DG: significantly restored synaptic loss
[3]; hippocampus
  synaptic loss (synaptophysin levels) in the CA2-3 region: significantly restored synaptic loss
[3]; prefrontal cortex
  levels of G-quadruplex: significantly reduced
  levels of phosphorylated TDP-43: significantly reduced
  levels of poly-GA: significantly reduced
  levels of poly-GP: significantly reduced
[4]
  levels of phosphorylated PKR: significantly reduced
